Active and inactive are the calls of the source. The calls are words filed in the database; no cut-off is given here.
Key:
DU-145 [1] = assay: Antiproliferative activity against human DU-145 cells assessed as inhibition of cell growth at 20 uM incubated for 48 hrs by CCK-8 assay relative to control; type: functional
Calu-3 [2] = assay: Antiproliferative activity against human Calu-3 cells assessed as inhibition of cell growth at 20 uM incubated for 48 hrs by CCK-8 assay relative to control; type: functional
HT-29 [3] = assay: Antiproliferative activity against human HT-29 cells assessed as inhibition of cell growth at 20 uM incubated for 48 hrs by CCK-8 assay relative to control; type: functional
MDA-MB-231 = assay: Antiproliferative activity against human MDA-MB-231 cells assessed as inhibition of cell growth incubated for 48 hrs by CCK-8 assay; type: functional, cell-based; conditions: MDA-MB-231, 48 h
CWR22R = assay: Antiproliferative activity against human 22Rv1 cells assessed as inhibition of cell growth incubated for 48 hrs by CCK-8 assay; type: functional, cell-based; conditions: 22Rv1, 48 h
NCI-H1299 = assay: Antiproliferative activity against human NCI-H1299 cells assessed as inhibition of cell growth incubated for 48 hrs by CCK-8 assay; type: functional, cell-based; conditions: NCI-H1299, 48 h
786-0 = assay: Antiproliferative activity against human 786-0 cells assessed as inhibition of cell growth incubated for 48 hrs by CCK-8 assay; type: functional, cell-based; conditions: 786-0, 48 h
DU-145 [4] = assay: Antiproliferative activity against human DU-145 cells assessed as inhibition of cell growth incubated for 48 hrs by CCK-8 assay; type: functional, cell-based; conditions: DU-145, 48 h
MRC5 = assay: Antiproliferative activity against human MRC5 cells assessed as inhibition of cell growth incubated for 48 hrs by CCK-8 assay; type: functional, cell-based; conditions: MRC5, 48 h
HT-29 [5] = assay: Antiproliferative activity against human HT-29 cells assessed as inhibition of cell growth incubated for 48 hrs by CCK-8 assay; type: functional, cell-based; conditions: HT-29, 48 h
A-375 = assay: Antiproliferative activity against human A-375 cells assessed as inhibition of cell growth incubated for 48 hrs by CCK-8 assay; type: functional, cell-based; conditions: A-375, 48 h
AGS = assay: Antiproliferative activity against human AGS cells assessed as inhibition of cell growth incubated for 48 hrs by CCK-8 assay; type: functional, cell-based
Calu-3 [6] = assay: Antiproliferative activity against human Calu-3 cells assessed as inhibition of cell growth incubated for 48 hrs by CCK-8 assay; type: functional, cell-based; conditions: Calu-3, 48 h
K562 = assay: Antiproliferative activity against human K562 cells assessed as inhibition of cell growth incubated for 48 hrs by CCK-8 assay; type: functional, cell-based; conditions: K562, 48 h
VCaP = assay: Antiproliferative activity against human VCaP cells assessed as inhibition of cell growth incubated for 48 hrs by CCK-8 assay; type: functional, cell-based
SH-SY5Y = assay: Antiproliferative activity against human SH-SY5Y cells assessed as inhibition of cell growth incubated for 48 hrs by CCK-8 assay; type: functional, cell-based
PC-3 = assay: Antiproliferative activity against human PC-3 cells assessed as inhibition of cell growth incubated for 48 hrs by CCK-8 assay; type: functional, cell-based; conditions: PC-3, 48 h
SK-N-AS = assay: Antiproliferative activity against human SK-N-AS cells assessed as inhibition of cell growth incubated for 48 hrs by CCK-8 assay; type: functional, cell-based
A549 = assay: Antiproliferative activity against human A549 cells assessed as inhibition of cell growth incubated for 48 hrs by CCK-8 assay; type: functional, cell-based; conditions: A549, 48 h

Row | IC50 (DU-145 [4]) [nM] | IC50 (HT-29 [5]) [nM] | IC50 (Calu-3 [6]) [nM] | SMILES | inhibition at 20 µM (DU-145 [1]) [%] | inhibition (Calu-3 [2]) | inhibition at 20 µM (HT-29 [3]) [%] | IC50 (MRC5) [nM] | also measured
1 | – | – | – | COc1cc(C(=O)Nc2ccc(CC(=O)NCCCCCCC(=O)N[C@H](C(=O)N3C[C@H](O)C[C@H]3C(=O)NCc3ccc(-c4scnc4C)cc3)C(C)(C)C)cc2)ccc1NC(=N)N | 8.05 | inactive | 31.6 | – | –
2 | 10 | 10 | 37200 | CC(=O)O[C@H]1C(=O)[C@@]2(C)[C@H]([C@H](OC(=O)c3ccccc3)[C@]3(O)C[C@H](OC(=O)[C@H](O)[C@@H](NC(=O)c4ccccc4)c4ccccc4)C(C)=C1C3(C)C)[C@]1(OC(C)=O)CO[C@@H]1C[C@@H]2O [PACLITAXEL] | – | – | – | 110 | IC50 (MDA-MB-231): 60 nM; IC50 (CWR22R): 40 nM; IC50 (NCI-H1299): 1150 nM; IC50 (786-0): 80 nM; IC50 (A-375): 10 nM; IC50 (AGS): 10 nM; IC50 (K562): 10 nM; IC50 (VCaP): 5540 nM; IC50 (SH-SY5Y): 10 nM; IC50 (PC-3): 7560 nM; IC50 (SK-N-AS): 10 nM
3 | – | – | – | COc1cc(C(=O)Nc2ccc(CC(=O)NCCCCCC(=O)Nc3cccc4c3CN(C3CCC(=O)NC3=O)C4=O)cc2)ccc1NC(=N)N (stereo not given) | 9.05 | inactive | 18.9 | – | –
4 | – | – | – | COc1cc(C(=O)Nc2ccc(CC(=O)NCCCCCCCC(=O)N[C@H](C(=O)N3C[C@H](O)C[C@H]3C(=O)NCc3ccc(-c4scnc4C)cc3)C(C)(C)C)cc2)ccc1NC(=N)N | 11.2 | inactive | 31.6 | – | –
5 | – | – | – | COc1cc(C(=O)Nc2ccc(CC(=O)N3CCC(CN4CCN(c5ccc6c(c5)C(=O)N(C5CCC(=O)NC5=O)C6=O)CC4)CC3)cc2)ccc1NC(=N)N (stereo not given) | 14.6 | inactive | 37.7 | – | –
6 | 11200 | 3830 | 21400 | Cc1ncsc1-c1ccc(CNC(=O)[C@@H]2C[C@@H](O)CN2C(=O)[C@@H](NC(=O)CN2CCC(CN3CCN(c4ccc(NC(=O)c5ccc(NC(=N)N)cc5F)cc4)CC3)CC2)C(C)(C)C)cc1 | 56.9 | – | 91.9 | > 40000 | inhibition at 20 µM (Calu-3 [2]): 47.5%; IC50 (A549): 35100 nM
